Test results: patent publication US6207648A, “Methods of using cytochrome P450 reductase for the enhancement of P450-based anti-cancer gene therapy” (priority 1998, dated 2001)
“Also recorded” adds a separate entry of the source. Where two headings read alike, the source gives them in different places.

What was measured:
[1] = test system: human P450 genes expressed in 9L cells; assay: Semicarbazide trapping/fluorescence assay for 4-hydroxy metabolites in 9L/P450 cells; format: in vitro ADME; conditions: 2 mM, 24 h
Method: Each of the indicated 9L cell lines was seeded on a 48-well plate in duplicate at 2×10^4 cells/well. […] Background fluorescence observed in 9L/Babe cells was subtracted from each sample.
Semicarbazide trapping/fluorescence assay for 4-hydroxy metabolites: 9L/P450 cells were seeded on a 48 well plate in duplicate at 2×10^4 cells/ well. […] Culture media, 400 μl, was removed and then treated with 160 μl of ice cold 5.5% (w/v) ZnSO4, 160 μl ice cold saturated Ba(OH)2, and 80 μl ice cold 0.01 M HCl. The mixture was vortexed and then centrifuged at 16,000 g for 15 minutes. 300 μl of the supernatant was transferred under dim light to a clean tube containing 540 μl of water and 160 μl of freshly prepared fluorescent reagent (60 mg 3-aminophenol and 60 mg hydroxylamine-HCl per 10 ml of 1 M HCl). The tubes were vortexed and heated at 90° C. for 20 minutes. Fluorescent readings were obtained at 350 nm (excitation), and 515 nm (emission) using 800 μl of each sample. Fluorescent values were converted to nmol 4-hydroxy metabolite/ml of original culture media based on standard curves generated using 4-hydroperoxy-CPA and then normalized to units of nmol 4-hydroxy metabolite formed per 24 hours per 10^6 cells.

parental 9L cells = assay: Limited dilution assay of conditioned media, bystander killing of parental 9L cells; format: cell-based, rat; conditions: PR11, PR7 vs P3, P17; 2 mM CPA 48 h
Method: FIG. 5 is a graph depicting the effects of culture media from P450 and RED-transduced tumor cells incubated with CPA, on the survival of wild-type tumor cells. […] Parental 9L cells seeded in 30 mm plates (10^4 cells/well) in duplicate were cultured with 5-50% of condition media collected from each of the indicated cell lines (1.5×10^6) incubated with 2 mM CPA for 48 hours as described below in the "Materials Methods" section of Example 1. Five days after treatment, the number of viable parental 9L cells was determined using a hemacytometer based on trypan blue exclusion (mean for duplicate values).
Limited dilution assay to evaluate bystander killing effect: 9L cells were seeded in 6-well plates at 1.5×10^6 cells/well for 12 hours, and treated with 2 mM CPA for 48 hours. The conditioned media from each well was collected, diluted 5-50% into fresh media as indicated for each experiment, and added into wells of a second set of 6-well plates pre-seeded with parental 9L cells (10^4 cells/well). Cultures were maintained for 5-7 days and colonies were scored as described for the clonogenic assay.

[2] = test system: 9L and 9L-R cells infected with Ad.CMV-2B1; assay: Adenovirus-mediated CYP2B1 gene transduction, CPA cytotoxicity (XTT); format: cell-based, rat
Method: FIGS. 8A and 8B are graphs depicting much greater cytotoxicity of adenovirus-mediated P450 gene transfer combined with CPA treatment in the case of 9L tumor cells engineered to express RED (FIG. 8B), compared to wild-type 9L cells that express basal RED activity (FIG. 8A). Cells were infected with Ad.CMV-2B1 at multiplicities of infection (MOI) ranging from 50-800, as indicated by the values in parenthesis on the right of each panel. Uninfected cells (UI) were used as controls. At 24 hours post infection, cells were replated at 500 cells per well in duplicate on 96-well plates. CPA was then added at concentrations up to 2 mM. After 5 days of incubation, cell survival was determined by an XTT colorimetric assay.
Adenovirus-mediated CYP2B1 gene transduction: A recombinant adenovirus, Ad.CMV-2B1, carrying the CYP2B1 gene was constructed as described in Chen, L., et al., Cancer Res. 56:1331-1340 (1996). Large scale production of recombinant adenovirus was performed by growth in 293 cells followed by purification by double cesium gradient ultracentrifugation (Graham, F. L. and Prevec, L., "Manipulation of Adenovirus Vectors" in Methods in Molecular Biology:Gene Transfer and Expression Protocols, volume 7, E. J. Murray (ed.), The Human Press, Inc., Clifton, N.J., pages 109-127 (1991)). The titer of purified adenovirus was determined in a spectrophotometer at 260 nm and by plaque assays. Ad.CMV-2B1 was added to the cells plated on 30 mm diameter tissue culture plates at multiplicities of infection (MOI) as indicated in the figure legends. Twenty four hours after viral infection, the infected cells were trypsinized and replated at 500 cells/well onto 96 well tissue culture plates and treated with CPA. Four to seven days after CPA treatment, the number of surviving cells was determined using the XTT assay described above.

[3] = test system: 9L/P450 gliosarcoma cells; assay: Growth inhibition assay of 9L/P450 cells, crystal violet (Example 2); format: cell-based, rat; conditions: for inhibition at 1000 µM: Rattus norvegicus, 96 h, 1 mM, 4 days
Method: Control cells for each cell line received no drug treatment. Relative cell number at the end of the experiment was determined by crystal violet staining as described below in "Material and Methods" of Example 2. Data (mean±SD, n=3) are based on the crystal violet absorbance in drug-treated plates as a percent of the corresponding drug-free controls.
Briefly, culture dishes were washed once with phosphate buffered saline (PBS), stained for 10 minutes with crystal violet (1.25 g crystal violet (Sigma) dissolved in 500 ml containing 50 ml of 37% formaldehyde and 450 ml methanol), and then washed with PBS, twice for 20 minutes per wash. Absorbance values were measured in an SLT Spectra microtiter plate reader using a 595 nm filter. Background absorbance determined from wells containing culture media alone was subtracted from each value.

9L/pBabe bystander cells = assay: Bystander cytotoxicity/co-culture with cell culture inserts; format: cell-based, rat; conditions: for cytotoxicity at 670 µM: Rattus norvegicus, 96 h, 9L/2B6/reductase, 0.67 mM
Method: FIGS. 18A and 18B are graphs depicting the bystander cytotoxicity of 9L/2B6/reductase and 9L/2B6 cells. In FIG. 18A, bystander cytotoxicity of 9L/2B6/reductase cells is compared to that of 9L/2B6 cells. In both cases, 9L/pBabe served as the bystander cells. 9L/pBabe cells were plated in duplicate at 10^5 cells/well of a 6-well plate (lower chamber). 9L/2B6/reductase cells or 9L/2B6 cells were plated in 25 mm cell culture inserts (upper chamber) at concentrations ranging from 10^4 to 6×10^5 cells, corresponding to ratios of 0.1 to 6 relative to the bystander 9L/pBabe cells growing in the lower chamber, as shown on the x-axis. Cells were incubated in a total volume of 3 ml Dulbecco's minimal essential medium (DMEM), 10% FBS, containing 1 mM CPA, final CPA concentration.
The experimental design was the same as in FIG. 18A, except that the final drug concentration was 0.67 mM. Data shown for both panels correspond to the survival of 9L/pBabe bystander cells in the lower chamber.
Bystander cytotoxicity/co-culture experiments: 9L/pBabe cells were plated in duplicate at 10^5 cells/well in the lower chamber of a 6-well Falcon co-culture plate (30 mm diameter wells) (Falcon 3046). 9L/2B6/reductase cells were plated in 25 mm cell culture inserts (0.4 μm pore size; Falcon 3090), at dilutions ranging from 0. 1 to 6 times the number of 9L/pBabe cells plated in the lower chamber. […] Relative cell numbers were quantitated 4 days later by crystal violet staining.

O=P1(N(CCCl)CCCl)NCCCO1 (stereo not shown) [CPA, cyclophosphamide]
effect of RED transduction on drug activation in 9L parental cells [1]: did not stimulate drug activation
effect of RED transduction on cytotoxic metabolites accumulating in the culture medium ([1]; CYP2B6 and CYP2C18-Met cells): significant increase in cytotoxic metabolites
cytotoxicity of conditioned media of CYP2B1+ RED+++ vs CYP2B1+ cells incubated with CPA (parental 9L cells): substantially more cytotoxic
CPA sensitivity of cells infected with Ad.CMV-2B1 ([2]; MOI 50 to 800, most striking in RED overexpressing cells): acquired CPA sensitivity
enhancement of drug cytotoxicity in Ad.CMV-2B1-infected cells at higher viral multiplicities ([2]; RED-overexpressing 9L cells): further enhanced
CPA sensitivity of 9L cells infected with lacZ adenovirus ([2]; control experiment): did not sensitize the cells
enhancement of drug cytotoxicity in Ad.CMV-2B1-infected cells at higher viral multiplicities ([2]; parental 9L cells, MOI above 200): not further enhanced
effect of P450 reductase overexpression on cytotoxicity ([3]; 9L/2B6 and 9L/2C18-Met cells, FIG. 15): markedly increased the cytotoxicity
cytotoxicity with RED transduction alone, in absence of P450 ([3]; 9L/RED, FIG. 15): did not confer CPA or IFA cytotoxicity
sensitivity of P450-negative cells ([3]; 9L/wt and 9L/pBabe, millimolar concentrations): insensitive
inhibition at 1000 µM ([3]; 9L/2B6): > 95%
inhibition at 1000 µM ([3]; 9L/2C9 and 9L/2C18-Thr): ~60%
inhibition at 1000 µM ([3]; 9L/2C19 and 9L/2C18-Met): 75 to 85%
inhibition at 1000 µM ([3]; 9L/3A4): ~90%
efficiency of P450 genes in chemosensitizing 9L cells to CPA ([3]; six human P450 genes): 2B6>2C18-Met~3A4>others
bystander killing of 9L/pBabe cells by 9L/2B6/reductase vs 9L/2B6 cells (9L/pBabe bystander cells; 1 mM CPA, cell ratio for 50% bystander cytotoxicity): approximately 3 fold
bystander cytotoxic effect on non-P450-expressing 9L cells (9L/pBabe bystander cells; 2B6 and RED-transduced tumor cells): strong cell contact-independent bystander cytotoxic effect; also recorded: striking bystander cytotoxic effect
cytotoxicity at 670 µM (9L/pBabe bystander cells; P450:non-P450 ratio approximately 0.5-1, read-out: bystander toxicity toward non-P450 tumor cells): ~40%
cytotoxicity at 670 µM (9L/pBabe bystander cells; cell ratio >3, read-out: bystander toxicity toward non-P450 cells): ≥ 80%
